Results from patent US8557816B2, “Aurora kinase modulators and method of use” (Amgen Inc., priority 2007, dated 2013).

How the values were obtained:
AuroraA-TPX2 = molecular target: T1, AuroraA-TPX2 (Homo sapiens, UniProt O14965); experiment: AuroraA-TPX2 Homogeneous Time Resolved Fluorescent (HTRF) kinase assay; assay type: biochemical; conditions: average; read-out: AurA_IC50_IP (uM Avg)
T1 construct: 20 μL of AuroraA-TPX2 KD GST for a final volume of about 41 μL; GST
T1 sequence (O14965 133-383 limits assumed): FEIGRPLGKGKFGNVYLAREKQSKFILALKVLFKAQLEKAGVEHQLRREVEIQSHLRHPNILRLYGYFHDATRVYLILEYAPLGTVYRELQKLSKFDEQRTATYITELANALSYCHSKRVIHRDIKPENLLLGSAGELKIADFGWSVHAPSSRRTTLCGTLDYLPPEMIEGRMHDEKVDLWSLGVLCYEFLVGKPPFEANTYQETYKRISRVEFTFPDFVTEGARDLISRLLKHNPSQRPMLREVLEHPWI
T1 sequence (Q9ULW0 1-43 partner limits assumed): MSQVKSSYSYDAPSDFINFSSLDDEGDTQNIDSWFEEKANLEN
Outline: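 HTRF read-out (Eu 615 nm to APC 655 nm) of phosphorylated biotin-PLK, detected with 0.02 nM europium anti-phosphoPLK antibody and 0.0005 mg/mL SA-APC after overnight equilibration.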

AuroraB = molecular target: T2, AuroraB (Homo sapiens, UniProt Q96GD4); experiment: AuroraB Homogeneous Time Resolved Fluorescent (HTRF) kinase assay; assay type: biochemical; conditions: average; read-out: AurB_IC50_IP (uM Avg)
T2 construct: 20 μL of AuroraB FL H is for a final volume of 41 μL; His
Outline: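 Read-out is time-resolved FRET between europium anti-phospho-H3 antibody and streptavidin-APC, added in EDTA buffer to stop the reaction and equilibrated about 60 min (ex 320, em 615 and 655 nm). Preceding reaction: ~90 min, full-length enzyme, ATP, 0.1 μM biotin-Histone H3 substrate, Mg/Mn HEPES buffer pH 7.5.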

T2 sequence (Q96GD4 whole entry): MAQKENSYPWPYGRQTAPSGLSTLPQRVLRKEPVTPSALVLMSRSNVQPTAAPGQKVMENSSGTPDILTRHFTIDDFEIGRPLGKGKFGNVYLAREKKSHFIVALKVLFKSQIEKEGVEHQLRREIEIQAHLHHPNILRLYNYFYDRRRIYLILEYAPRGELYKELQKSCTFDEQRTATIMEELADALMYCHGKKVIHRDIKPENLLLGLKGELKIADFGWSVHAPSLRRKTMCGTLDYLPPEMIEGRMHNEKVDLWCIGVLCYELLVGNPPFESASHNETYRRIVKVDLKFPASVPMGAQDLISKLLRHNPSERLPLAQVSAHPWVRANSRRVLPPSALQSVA

IC50 (AuroraA-TPX2) | IC50 (AuroraB) | SMILES
0.024 µM | 0.007 µM | CCc1ccc(-c2nnc(Nc3ccc(Oc4ccnc5cc(OC)cnc45)cc3)c3ccccc23)s1 [compound 229, 4-(5-ethyl-2-thienyl)-N-(4-((7-(methyloxy)-1,5-naphthyridin-4-yl)oxy)phenyl)-1-phthalazinamine]
0.082 µM | 0.004 µM | COc1ccc2nccc(Oc3ccc(Nc4nnc(-c5ccc(Cl)cn5)c5ccccc45)cc3)c2c1 [compound 278, 4-(5-chloro-2-pyridinyl)-N-(4-((6-(methyloxy)-4-quinolinyl)oxy)phenyl)-1-phthalazinamine]
0.022 µM | 0.02 µM | COCCCNc1nnc(Nc2ccc(Sc3ccnc4cc(OC)cnc34)cc2)c2ccccc12 [compound 535]
0.059 µM | 0.002 µM | COc1cccc(-c2nnc(Nc3ccc(Oc4ccnc5ccccc45)c(F)c3)c3ccccc23)n1 [compound 186, N-(3-fluoro-4-(4-quinolinyloxy)phenyl)-4-(6-(methyloxy)-2-pyridinyl)-1-phthalazinamine]
0.101 µM | 0.054 µM | COCCOc1cc(-c2nnc(Nc3ccc(Sc4ccnc5cc(OC)cnc45)cc3)c3ccccc23)ccc1Cl [compound 450]
1.64 µM | 0.253 µM | COc1cc2nncc(Oc3ccc(Nc4nnc(-c5ccccc5)c5ccccc45)cc3)c2cc1OC [compound 254, N-(4-((6,7-bis(methyloxy)-4-cinnolinyl)oxy)phenyl)-4-phenyl-1-phthalazinamine]
0.016 µM | 0.009 µM | Cc1csc(-c2nnc(Nc3ccc(Oc4ccnc5cc(C#N)ccc45)cc3)c3ccccc23)c1 [compound 170, 4-((4-((4-(4-methyl-2-thienyl)-1-phthalazinyl)amino)phenyl)oxy)-7-quinolinecarbonitrile]
0.016 µM | 0.007 µM | COc1cc2ncnc(Oc3ccc(Nc4nnc(-c5ccccc5)c5ccccc45)cc3)c2cc1OC [compound 98, N-(4-((6,7-bis(methyloxy)-4-quinazolinyl)oxy)phenyl)-4-phenyl-1-phthalazinamine]
0.01 µM | 0.007 µM | COc1cnc2c(Oc3ccc(Nc4nnc(-c5ccc6occc6c5)c5ccccc45)cc3)ccnc2c1 [compound 159, 4-(1-benzofuran-5-yl)-N-(4-((7-(methyloxy)-1,5-naphthyridin-4-yl)oxy)phenyl)-1-phthalazinamine]
0.022 µM | 0.008 µM | COc1cnc2c(Oc3ccc(Nc4nnc(-c5ccc(Cl)s5)c5ccccc45)cc3)ccnc2c1 [compound 140, 4-(5-chloro-2-thienyl)-N-(4-((7-(methyloxy)-1,5-naphthyridin-4-yl)oxy)phenyl)-1-phthalazinamine]
0.006 µM | 0.003 µM | Cc1ccc(-c2nnc(Nc3ccc(Oc4ccnc5cc(C#N)ccc45)cc3)c3ccccc23)cc1 [compound 88, 4-((4-((4-(4-methylphenyl)-1-phthalazinyl)amino)phenyl)oxy)-7-quinolinecarbonitrile]
0.028 µM | 0.008 µM | COc1cnc2c(Oc3ccc(Nc4nnc(-c5ccccc5)c5ccccc45)cc3)ccnc2c1 [compound 79, N-(4-((7-(methyloxy)-1,5-naphthyridin-4-yl)oxy)phenyl)-4-phenyl-1-phthalazinamine]
0.009 µM | 0.026 µM | COc1cnc2c(Sc3ccc(Nc4nnc(-c5ccc(C)c(N)c5)c5ccccc45)cc3)ccnc2c1 [compound 477]
0.027 µM | 0.013 µM | Cc1csc(-c2nnc(Nc3ccc(Oc4ccnc5cccnc45)cc3)c3ccccc23)c1 [compound 447]
0.029 µM | 0.004 µM | Clc1ccc(-c2nnc(Nc3ccc(Sc4ccnc5cccnc45)cc3)c3ccccc23)cc1 [compound 308, 4-(4-chlorophenyl)-N-(4-(1,5-naphthyridin-4-ylthio)phenyl)-1-phthalazinamine]
0.226 µM | 0.81 µM | Cc1csc(-c2nnc(Nc3ccc(Oc4ccnc5ccc(OC(F)(F)F)cc45)cc3)c3ccccc23)c1 [compound 575]
0.013 µM | 0.017 µM | COCCOc1cc2nccc(Oc3ccc(Nc4nnc(-c5ccccc5)c5ccccc45)cc3)c2cc1OC [Example 393, N-(4-(6-Methoxy-7-(2-methoxyethoxy)quinolin-4-yloxy)phenyl)-4-phenylphthalazin-1-amine]
0.018 µM | 0.005 µM | COc1cnc2c(Oc3ccc(Nc4nnc(-c5ccccc5)cc4C)cc3)ccnc2c1 [compound 107, 4-methyl-N-(4-((7-(methyloxy)-1,5-naphthyridin-4-yl)oxy)phenyl)-6-phenyl-3-pyridazinamine]
0.812 µM | 0.031 µM | COc1cnc2c(Sc3ccc(Nc4nnc(Cl)c5ccccc45)cc3)ccnc2c1 [compound 536]
0.007 µM | 0.003 µM | COc1cnc2c(Oc3ccc(Nc4nnc(N5CCN6CCCC6C5)c5ccccc45)cc3)ccnc2c1 (stereo not shown) [compound 92, 4-(hexahydropyrrolo[1,2-a]pyrazin-2(1H)-yl)-N-(4-((7-(methyloxy)-1,5-naphthyridin-4-yl)oxy)phenyl)-1-phthalazinamine]
1.33 µM | 0.039 µM | COc1cnc2c(Oc3ccc(Nc4nnc(-c5ccnn5C)c5ccccc45)cc3)ccnc2c1 [compound 223, N-(4-((7-(methyloxy)-1,5-naphthyridin-4-yl)oxy)phenyl)-4-(1-methyl-1H-pyrazol-5-yl)-1-phthalazinamine]
0.241 µM | 0.006 µM | c1ccc(-c2nnc(Nc3ccc(Sc4ccnc5ccsc45)cc3)c3ccccc23)cc1 [compound 355, 4-phenyl-N-(4-(thieno[3,2-b]pyridin-7-ylthio)phenyl)phthalazin-1-amine]
0.319 µM | 0.041 µM | COc1cnc2c(Oc3ccc(Nc4nncc5ccccc45)cc3)ccnc2c1 [compound 542, N-(4-((7-methoxy-1,5-naphthyridin-4-yl)oxy)phenyl)-1-phthalazinamine]
0.679 µM | 0.045 µM | Clc1ccc(-c2nnc(Nc3ccc(Oc4ncnc5[nH]cnc45)cc3)c3ccccc23)cc1 [compound 266, 4-(4-chlorophenyl)-N-(4-(9H-purin-6-yloxy)phenyl)-1-phthalazinamine]
0.087 µM | 0.003 µM | COc1cnc2c(Oc3ccc(Nc4nnc(-c5ncco5)c5ccccc45)cc3)ccnc2c1 [compound 200, N-(4-((7-(methyloxy)-1,5-naphthyridin-4-yl)oxy)phenyl)-4-(1,3-oxazol-2-yl)-1-phthalazinamine]
0.037 µM | 0.051 µM | Cc1csc(-c2nnc(Nc3ccc(Sc4ccnc5ccsc45)cc3)c3ccccc23)c1 [compound 366, 4-(4-methylthiophen-2-yl)-N-(4-(thieno[3,2-b]pyridin-7-ylthio)phenyl)phthalazin-1-amine]
0.198 µM | 0.111 µM | COc1cnc2c(Sc3ccc(Nc4nnc(NCCc5ccccn5)c5ccccc45)cc3)ccnc2c1 [compound 537]
0.112 µM | 0.067 µM | CCc1cc(N2CC[C@H]3CCCC[C@@H]3C2)nnc1Nc1ccc(Oc2ccnc3cc(OC)cnc23)cc1 [compound 300, 4-ethyl-N-(4-((7-(methyloxy)-1,5-naphthyridin-4-yl)oxy)phenyl)-6-((4aR,8aS)-octahydro-2(1H)-isoquinolinyl)-3-pyridazinamine]
0.035 µM | 0.026 µM | COCCOCCOc1ccc2nccc(Sc3ccc(Nc4nnc(-c5ccc(Cl)cc5)c5ccccc45)cc3)c2n1 [compound 475]
